Measurements published in ChEMBL document CHEMBL1201862, “PubChem BioAssay data set” (2004).
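Where inhibition never reached the appropriate level, the endpoint shown equals the highest concentration tested. Otherwise, values were interpolated linearly from a five-concentration, 48-hour dose response in 96-well plates. The concentration for 50% growth inhibition is given as GI50.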 Active and inactive are the calls of the source. Rule as the data show it: active = GI50 up to about 1.1 µM and inactive = higher.

How the values were obtained:
Assay in all cases: NCI-60 cell line screen, 48 h
[1] = tested on: RPMI-8226
[2] = tested on: NCI-H226
[3] = tested on: EKVX
[4] = tested on: HOP-62
[5] = tested on: MDA-MB-435
[6] = tested on: DU-145
[7] = tested on: UACC-62
[8] = tested on: SF-295
[9] = tested on: NCI-H522
[10] = tested on: A498
[11] = tested on: OVCAR-4
[12] = tested on: SK-MEL-28
[13] = tested on: RXF 393
[14] = tested on: Malme-3M
[15] = tested on: COLO 205
[16] = tested on: OVCAR-5
[17] = tested on: IGROV-1
[18] = tested on: MDA-MB-231
[19] = tested on: SNB-19
[20] = tested on: HCC 2998

| Compound | GI50 [1] | GI50 [2] | GI50 [3] | GI50 [4] | GI50 [5] | GI50 [6] | GI50 [7] | GI50 [8] | GI50 [9] | GI50 [10] | GI50 [11] | GI50 [12] | GI50 [13] | GI50 [14] | GI50 [15] | GI50 [16] | GI50 [17] | GI50 [18] | GI50 [19] | GI50 [20] |
| --- | --- | --- | --- | --- | --- | --- | --- | --- | --- | --- | --- | --- | --- | --- | --- | --- | --- | --- | --- | --- |
| Cn1c2c(c3ccccc31)CCN1C(=O)C34CCCC3CC21S4 (stereo unspecified) | > 100 µM (inactive) | > 100 µM (inactive) | > 100 µM (inactive) | > 100 µM (inactive) | > 100 µM (inactive) | > 100 µM (inactive) | 78.7 µM (inactive) | > 100 µM (inactive) | > 100 µM (inactive) | > 100 µM (inactive) | > 100 µM (inactive) | > 100 µM (inactive) | > 100 µM (inactive) | > 100 µM (inactive) | > 100 µM (inactive) | > 100 µM (inactive) | > 100 µM (inactive) | > 100 µM (inactive) | > 100 µM (inactive) | – |
| Nc1nc(Cl)cc(NCC2(CO)CC(=O)C2)n1 | > 100 µM (inactive) | > 100 µM (inactive) | 98.6 µM (inactive) | > 100 µM (inactive) | > 100 µM (inactive) | > 100 µM (inactive) | 86.7 µM (inactive) | > 100 µM (inactive) | > 100 µM (inactive) | – | > 100 µM (inactive) | > 100 µM (inactive) | > 100 µM (inactive) | > 100 µM (inactive) | > 100 µM (inactive) | > 100 µM (inactive) | > 100 µM (inactive) | > 100 µM (inactive) | > 100 µM (inactive) | > 100 µM (inactive) |
| CC(=O)O[C@H]1C(=O)[C@@]2(C)[C@H]([C@H](OC(=O)C3CCCCC3)[C@]3(O)C[C@H](OC(=O)[C@H](O)[C@@H](NC(=O)OC(C)(C)C)c4ccccc4)C(C)=C1C3(C)C)[C@]1(OC(C)=O)CO[C@@H]1C[C@@H]2O | 0.00457 µM (active) | 0.0236 µM (active) | > 12.5 µM (inactive) | 0.0181 µM (active) | 0.00226 µM (active) | 0.0867 µM (active) | 0.0129 µM (active) | 0.027 µM (active) | 0.00918 µM (active) | – | 10.2 µM (inactive) | – | 0.0331 µM (active) | 0.177 µM (active) | 0.013 µM (active) | 0.0074 µM (active) | 0.00348 µM (active) | 0.0427 µM (active) | 0.0326 µM (active) | 0.0299 µM (active) |
| CC(C)(C)OC(=O)c1ccc(NCC2=C(Br)C(=O)C=CC2=O)cc1 | 10.3 µM (inactive) | 22.1 µM (inactive) | 19.7 µM (inactive) | 37 µM (inactive) | 18.8 µM (inactive) | 35.7 µM (inactive) | 16.6 µM (inactive) | 65.9 µM (inactive) | 4.47 µM (inactive) | – | 14.1 µM (inactive) | 19.6 µM (inactive) | 13.7 µM (inactive) | 14.9 µM (inactive) | 18.2 µM (inactive) | 23.1 µM (inactive) | 24.2 µM (inactive) | 19.1 µM (inactive) | > 54.7 µM (inactive) | 21.5 µM (inactive) |
| Nc1ccc2c(c1)NCCN2 | 70.1 µM (inactive) | 7.8 µM (inactive) | 54.1 µM (inactive) | > 100 µM (inactive) | 82 µM (inactive) | 25.7 µM (inactive) | 5.13 µM (inactive) | 64.1 µM (inactive) | 7.64 µM (inactive) | – | > 100 µM (inactive) | > 100 µM (inactive) | > 100 µM (inactive) | 51.4 µM (inactive) | 9.66 µM (inactive) | > 100 µM (inactive) | 8.36 µM (inactive) | > 100 µM (inactive) | 9.84 µM (inactive) | > 100 µM (inactive) |
| Sc1nn2c(COc3ccc(Cl)cc3)nnc2s1 | > 100 µM (inactive) | > 100 µM (inactive) | > 100 µM (inactive) | > 100 µM (inactive) | > 100 µM (inactive) | > 100 µM (inactive) | > 100 µM (inactive) | > 100 µM (inactive) | > 100 µM (inactive) | – | > 100 µM (inactive) | > 100 µM (inactive) | > 100 µM (inactive) | > 100 µM (inactive) | > 100 µM (inactive) | > 100 µM (inactive) | > 100 µM (inactive) | > 100 µM (inactive) | > 100 µM (inactive) | > 100 µM (inactive) |
| COc1ccc(-c2oc3cc(O)cc(O)c3c(=O)c2OC)cc1 [ERMANIN] | 15 µM (inactive) | – | 51.2 µM (inactive) | 26.6 µM (inactive) | 17.8 µM (inactive) | 27.2 µM (inactive) | 21.5 µM (inactive) | 26.6 µM (inactive) | 2.48 µM (inactive) | 24.4 µM (inactive) | 44.6 µM (inactive) | 27 µM (inactive) | – | 38.8 µM (inactive) | 20.7 µM (inactive) | > 100 µM (inactive) | 28.3 µM (inactive) | 31.8 µM (inactive) | 32.7 µM (inactive) | 26 µM (inactive) |
